According to patent US20240173333A1, “Treating Alagille Syndrome (ALGS)” (priority 2022, published 2024):
Read-outs that look alike come from different tables or passages of the source.

What was measured:
patients with ALGS = settings: cited from earlier work
[1] = Water content and water uptake of crystal modification 1 with relative humidity; assay type: physicochemical
Description: Crystal modification 1 contains void volumes that are capable of containing up to about 2 moles of water associated with the crystal per mole of odevixibat, depending on the relative humidity. This form is therefore formally a channel hydrate. At about 30% relative humidity, however, crystal modification 1 contains a substantially stoichiometric amount of about 1.5 moles of water per mole of organic compound and is thus a sesquihydrate. The substantially stoichiometric amount of water is considered advantageous, as the water content of the crystals remains substantially constant even with humidity changes within the normal relative humidity range of about 30% to about 70% RH.
Whereas crystal modification 1 is a sesquihydrate containing about 3.5% (w/w) water at about 30% relative humidity (based on the total crystal weight), it has been observed that the crystal can take up an additional 1.5% (w/w) water when the humidity is increased up to 95% RH. The sorption and desorption of this additional water is fully reversible. The additional water may be adsorbed on the surface or may further fill the channels of the structure. […]

Q: Which transaminase levels (patients with ALGS; human, in vivo) does the source give for cholestyramine here?
A: Elevations in transaminase levels have been reported

Q: What does the source list for `CCCCC1(CCCC)CN(c2ccccc2)c2cc(SC)c(OCC(=O)N[C@@H](C(=O)N[C@@H](CC)C(=O)O)c3ccc(O)cc3)cc2S(=O)(=O)N1` [crystal modification 1]?
A: water content (based on the total crystal weight) ([1]; about 30% relative humidity): about 3.5 % (w/w); additional water taken up ([1]; humidity increased up to 95% RH, fully reversible): 1.5 % (w/w)

Q: For `CCCCC1(CCCC)CS(=O)(=O)c2ccc(N(C)C)cc2[C@@H](c2ccc(OCc3ccc(C[N+]45CCN(CC4)CC5)cc3)cc2)[C@H]1O` [maralixibat], which transaminase levels (patients with ALGS; patients with ALGS) is on record?
A: Elevations in transaminase levels have been reported
